Data: patent US10239843B2 (CANCER RESEARCH TECHNOLOGY LIMITED, priority 2014, dated 2019)

biological target: Human Full Length PARG (Homo sapiens (Human), UniProt Q86W56); experiment: PARG enzyme assay (TR-FRET); type: biochemical; conditions: read-out: PARG Biochem IC50
Sequence (Q86W56 whole entry): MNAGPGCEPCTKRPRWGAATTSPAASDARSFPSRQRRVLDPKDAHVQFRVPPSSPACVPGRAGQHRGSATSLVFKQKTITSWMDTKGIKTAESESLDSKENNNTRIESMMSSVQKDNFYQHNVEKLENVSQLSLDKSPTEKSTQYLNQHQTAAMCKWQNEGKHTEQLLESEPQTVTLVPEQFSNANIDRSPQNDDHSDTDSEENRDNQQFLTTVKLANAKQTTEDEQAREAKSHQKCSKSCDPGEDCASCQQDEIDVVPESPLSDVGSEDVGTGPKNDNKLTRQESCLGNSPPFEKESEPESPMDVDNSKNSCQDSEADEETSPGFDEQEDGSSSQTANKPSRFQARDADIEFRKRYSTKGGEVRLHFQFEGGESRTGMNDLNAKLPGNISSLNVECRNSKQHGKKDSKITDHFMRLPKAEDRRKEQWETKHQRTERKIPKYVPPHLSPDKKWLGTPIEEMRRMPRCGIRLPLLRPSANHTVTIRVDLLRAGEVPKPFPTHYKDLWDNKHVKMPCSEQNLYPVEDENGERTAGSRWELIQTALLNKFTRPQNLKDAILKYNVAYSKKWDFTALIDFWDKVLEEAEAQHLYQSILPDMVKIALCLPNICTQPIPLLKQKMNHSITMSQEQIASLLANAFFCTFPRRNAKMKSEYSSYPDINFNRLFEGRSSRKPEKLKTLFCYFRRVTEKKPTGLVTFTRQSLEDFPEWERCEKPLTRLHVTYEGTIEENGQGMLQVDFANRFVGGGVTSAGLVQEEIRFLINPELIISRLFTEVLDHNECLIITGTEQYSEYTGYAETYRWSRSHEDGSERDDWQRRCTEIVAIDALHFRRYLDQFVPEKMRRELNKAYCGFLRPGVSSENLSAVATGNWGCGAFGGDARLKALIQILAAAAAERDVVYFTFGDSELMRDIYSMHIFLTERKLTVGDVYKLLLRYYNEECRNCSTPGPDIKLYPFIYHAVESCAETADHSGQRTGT

SMILES | IC50 [nM]
Cc1cc(Cn2c(=O)c3cc(S(=O)(=O)NC4(C)CC4)ccc3n(CC(C)(C)F)c2=O)on1 [Example 453, 1-(2-Fluoro-2-methyl-propyl)-N-(1-methylcyclopropyl)-3-[(3-methylisoxazol-5-yl)methyl]-2,4-dioxo-quinazoline-6-sulfonamide] | 348
CC1(NS(=O)(=O)c2ccc3[nH]c(=O)n(CCc4ccccn4)c(=O)c3c2)CC1 [Example 495, N-(1-Methylcyclopropyl)-2,4-dioxo-3-[2-(2-pyridyl)ethyl]-1H-quinazoline-6-sulfonamide] | 7070
Cn1c(=O)n(CCc2ccccn2)c(=O)c2cc(S(=O)(=O)NC3(C)CC3)ccc21 [Example 498, 1-Methyl-N-(1-methylcyclopropyl)-2,4-dioxo-3-[2-(2-pyridyl)ethyl]quinazoline-6-sulfonamide] | 3920
Cn1cnnc1Cn1c(=O)c2cc(S(=O)(=O)NC3(C)CC3)ccc2n(C)c1=O [Example 499, 1-Methyl-N-(1-methylcyclopropyl)-3-[(4-methyl-1,2,4-triazol-3-yl)methyl]-2,4-dioxo-quinazoline-6-sulfonamide] | 2460
Cn1c(=O)n(Cc2cnc[nH]2)c(=O)c2cc(S(=O)(=O)NC3(C)CC3)ccc21 [Example 505, 3-(1H-Imidazol-4-ylmethyl)-1-methyl-N-(1-methylcyclopropyl)-2,4-dioxo-quinazoline-6-sulfonamide] | 3790
CC(C)n1cc(Cn2c(=O)c3cc(S(=O)(=O)NC4(C)CC4)ccc3n(C)c2=O)cn1 [Example 507, 3-[(1-Isopropylpyrazol-4-yl)methyl]-1-methyl-N-(1-methylcyclopropyl)-2,4-dioxo-quinazoline-6-sulfonamide] | 4130
Cn1c(=O)[nH]c(=O)c2cc(S(=O)(=O)NC3(CF)CC3)ccc21 [Example 512, N-[1-(Fluoromethyl)cyclopropyl]-1-methyl-2,4-dioxo-quinazoline-6-sulfonamide] | 2950

More lines, now with the values ahead:

IC50 [nM] | SMILES
1610 | Cn1c(=O)n(Cc2nnc(C(F)(F)F)o2)c(=O)c2cc(S(=O)(=O)NC3(C)CC3)ccc21 [Example 501, 1-Methyl-N-(1-methylcyclopropyl)-2,4-dioxo-3-[[5-(trifluoromethyl)-1,3,4-oxadiazol-2-yl]methyl]quinazoline-6-sulfonamide]
2770 | Cn1nnnc1Cn1c(=O)c2cc(S(=O)(=O)NC3(C)CC3)ccc2n(C)c1=O [Example 508, 1-Methyl-N-(1-methylcyclopropyl)-3-[(1-methyltetrazol-5-yl)methyl]-2,4-dioxo-quinazoline-6-sulfonamide]
7220 | CC(C)c1nnsc1Cn1c(=O)c2cc(S(=O)(=O)NC3(C)CC3)ccc2n(C)c1=O [Example 509, 3-[(4-Isopropylthiadiazol-5-yl)methyl]-1-methyl-N-(1-methylcyclopropyl)-2,4-dioxo-quinazoline-6-sulfonamide]
2290 | Cn1c(=O)n(Cc2ccns2)c(=O)c2cc(S(=O)(=O)NC3(C)CC3)ccc21 [Example 510, 3-(Isothiazol-5-ylmethyl)-1-methyl-N-(1-methylcyclopropyl)-2,4-dioxo-quinazoline-6-sulfonamide]
2060 | Cc1nonc1Cn1c(=O)c2cc(S(=O)(=O)NC3(C)CC3)ccc2n(C)c1=O [Example 511, 1-Methyl-N-(1-methylcyclopropyl)-3-[(4-methyl-1,2,5-oxadiazol-3-yl)methyl]-2,4-dioxo-quinazoline-6-sulfonamide]
208 | COCCn1c(=O)n(Cc2cc(C)no2)c(=O)c2cc(S(=O)(=O)NC3(CF)CC3)ccc21 [Example 527, N-[1-(Fluoromethyl)cyclopropyl]-1-(2-methoxyethyl)-3-[(3-methylisoxazol-5-yl)methyl]-2,4-dioxo-quinazoline-6-sulfonamide]
1740 | Cn1c(=O)n(CC(=O)c2ccncc2)c(=O)c2cc(S(=O)(=O)NC3(C)CC3)ccc21 [Example 528, 1-Methyl-N-(1-methylcyclopropyl)-2,4-dioxo-3-[2-oxo-2-(4-pyridyl)ethyl]quinazoline-6-sulfonamide]
